From the supplement of paper PMC10307832

Assays:
Test in all cases: relative viability (nuclei count vs DMSO), 5 days (fraction); higher = more cells survive
Idelalisib + Alpelisib = compound: CC[C@H](Nc1ncnc2[nH]cnc12)c1nc2cccc(F)c2c(=O)n1-c1ccccc1 [Idelalisib] + Cc1nc(NC(=O)N2CCC[C@H]2C(N)=O)sc1-c1ccnc(C(C)(C)C(F)(F)F)c1 [Alpelisib] (partner 2 µM)
Summary of the method: (§1)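 Values are medians from duplicate plates. Each reflects relative viability, defined as the nuclei count of treated wells over that of vehicle wells. Lung cancer cell lines in 1536-well plates were pin-tool dosed one day after seeding with one drug alone or with a fixed anchor-drug dose plus five library-drug doses (not always all listed) in √10 steps, then fixed, stained and imaged at 4× after 5 days.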

Pemetrexed + Luminespib = compound: Nc1nc2[nH]cc(CCc3ccc(C(=O)N[C@@H](CCC(=O)O)C(=O)O)cc3)c2c(=O)[nH]1 [Pemetrexed] + CCNC(=O)c1noc(-c2cc(C(C)C)c(O)cc2O)c1-c1ccc(CN2CCOCC2)cc1 [Luminespib] (partner 0.01 µM)
Summary of the method: as §1

Pemetrexed + Trametinib = compound: Nc1nc2[nH]cc(CCc3ccc(C(=O)N[C@@H](CCC(=O)O)C(=O)O)cc3)c2c(=O)[nH]1 [Pemetrexed] + CC(=O)Nc1cccc(-n2c(=O)n(C3CC3)c(=O)c3c(Nc4ccc(I)cc4F)n(C)c(=O)c(C)c32)c1 [Trametinib] (partner 0.02 µM)
Summary of the method: as §1

Pemetrexed + Bortezomib = compound: Nc1nc2[nH]cc(CCc3ccc(C(=O)N[C@@H](CCC(=O)O)C(=O)O)cc3)c2c(=O)[nH]1 [Pemetrexed] + CC(C)C[C@H](NC(=O)[C@H](Cc1ccccc1)NC(=O)c1cnccn1)B(O)O [Bortezomib] (partner 0.002 µM)
Summary of the method: as §1

Cell Line | relative viability (Idelalisib + Alpelisib; first compound 0.04 µM) | relative viability (Idelalisib + Alpelisib; first compound 0.1265 µM) | relative viability (Idelalisib + Alpelisib; first compound 0.4 µM) | relative viability (Idelalisib + Alpelisib; first compound 1.265 µM) | relative viability (Idelalisib + Alpelisib; first compound 4 µM) | relative viability (Pemetrexed + Luminespib; first compound 0.006325 µM) | relative viability (Pemetrexed + Luminespib; first compound 0.02 µM) | relative viability (Pemetrexed + Luminespib; first compound 0.06325 µM) | relative viability (Pemetrexed + Luminespib; first compound 0.2 µM) | relative viability (Pemetrexed + Trametinib; first compound 0.002 µM) | relative viability (Pemetrexed + Trametinib; first compound 0.006325 µM) | relative viability (Pemetrexed + Trametinib; first compound 0.02 µM) | relative viability (Pemetrexed + Trametinib; first compound 0.06325 µM) | relative viability (Pemetrexed + Trametinib; first compound 0.2 µM) | relative viability (Pemetrexed + Bortezomib; first compound 0.002 µM) | relative viability (Pemetrexed + Bortezomib; first compound 0.006325 µM) | relative viability (Pemetrexed + Bortezomib; first compound 0.02 µM) | relative viability (Pemetrexed + Bortezomib; first compound 0.06325 µM) | relative viability (Pemetrexed + Bortezomib; first compound 0.2 µM) | relative viability (Pemetrexed + Luminespib; first compound 0.002 µM)
NCI-H727 | 0.643 | 0.69 | 0.499 | 0.588 | 0.622 | 0.255 | 0.346 | 0.689 | 0.506 | 0.346 | 0.395 | 0.464 | 0.357 | 0.404 | 0.807 | 0.892 | 0.74 | 0.897 | 0.742 | –
NCI-H1993 | 0.691 | 0.592 | 0.679 | 0.665 | 0.667 | 0.623 | 0.868 | 0.913 | 0.41 | 0.457 | 0.439 | 0.551 | 0.522 | 0.549 | 1.04 | 1.08 | 1.22 | 0.99 | 0.695 | 0.432
EMC-BAC-2 | 0.689 | 0.736 | 0.674 | 0.707 | 0.684 | 1.1 | 1.11 | 1.06 | 1.18 | 0.826 | 0.755 | 0.986 | 0.807 | 0.618 | 0.993 | 0.922 | 1.11 | 1.06 | 1.04 | 1.15
NCI-H2087 | 1.03 | 1.19 | 1.11 | 1.09 | 0.651 | 0.204 | 0.243 | 0.152 | 0.136 | 0.145 | 0.173 | 0.215 | 0.212 | 0.249 | 0.834 | 0.639 | 0.919 | 1.04 | 0.523 | 0.206
NCI-H441 | 0.987 | 0.455 | – | 0.839 | 0.611 | 0.328 | 0.33 | 0.393 | 0.328 | 0.536 | 0.501 | 0.448 | 0.303 | 0.247 | 0.572 | 0.602 | 0.914 | 0.825 | 0.389 | 0.35
LXF-289 | 0.997 | 1.05 | 0.996 | 1.01 | 0.993 | 0.648 | 0.731 | 0.639 | 0.651 | 0.685 | 0.673 | 0.729 | 0.676 | 0.637 | 0.987 | 0.993 | 1.08 | 0.976 | 0.943 | 0.687
NCI-H661 | 0.708 | 0.642 | 0.637 | 0.718 | 0.813 | 0.882 | 0.934 | 0.884 | 0.85 | 0.659 | 0.524 | 0.705 | 0.549 | 0.571 | 0.945 | 0.88 | 0.891 | 0.727 | 0.648 | 0.958
PC-3 [JPC-3] | 1.11 | 1.02 | 0.981 | 0.963 | 0.855 | 0.79 | 0.702 | 0.715 | 0.758 | 0.748 | 0.666 | 0.683 | 0.657 | 0.725 | 0.66 | 0.74 | 0.925 | 0.854 | 0.772 | 0.678
NCI-H1651 | 0.921 | 0.864 | 0.907 | 0.964 | 0.845 | 0.792 | 0.965 | 0.983 | 0.732 | 0.857 | 0.783 | 0.821 | 0.827 | 0.786 | 0.992 | 0.919 | 0.945 | 0.892 | 0.911 | 0.845
NCI-H1355 | 0.956 | 0.767 | 0.751 | 0.679 | 0.568 | 0.662 | 0.656 | 0.693 | 0.715 | 0.404 | 0.441 | 0.392 | 0.416 | 0.418 | 0.952 | 1.33 | 1.21 | 1.21 | 1.15 | 0.737
LC-2-ad | 0.887 | 0.683 | 0.959 | 0.893 | 0.637 | 0.989 | 0.709 | 0.313 | 0.303 | 0.915 | 0.856 | 0.87 | 0.82 | 0.306 | 0.981 | 1.01 | 1.02 | 0.215 | 0.148 | 1.09
HCC-827 | 0.977 | 0.968 | 0.92 | 0.894 | 0.506 | 0.633 | 0.856 | 0.724 | 0.382 | 0.453 | 0.544 | 0.6 | 0.472 | 0.404 | 0.961 | 1.02 | 1.01 | 1.01 | 0.748 | 0.541
COR-L23 | 0.698 | 0.769 | 0.634 | 0.69 | 0.763 | 0.63 | 0.771 | 0.358 | 0.176 | 0.581 | 0.569 | 0.733 | 0.206 | 0.152 | 0.795 | 0.939 | 0.995 | 0.376 | 0.179 | 0.639
NCI-H3122 | 0.709 | 0.782 | 0.685 | 0.777 | 0.631 | 0.106 | 0.106 | 0.0892 | 0.0783 | 0.255 | 0.236 | 0.252 | 0.218 | 0.202 | 1.02 | 1.02 | 0.899 | 0.99 | 0.877 | 0.106
BEN | 1.05 | 1.13 | 0.853 | 1.04 | 0.853 | 0.435 | 0.374 | 0.484 | 0.559 | 1.19 | 0.942 | 1.08 | 0.884 | 1.05 | 0.838 | 0.847 | 1.01 | 0.855 | 0.688 | 0.491
NCI-H647 | 1.27 | 1.17 | 0.845 | 1.12 | 0.68 | 0.189 | 0.257 | 0.17 | 0.131 | 0.52 | 0.436 | 0.478 | 0.406 | 0.17 | – | 1.07 | 1.35 | 0.703 | 0.295 | 0.21
